Results published in the Kinase Knowledgebase extract (Sharma et al. 2016).

Target: CDK2 (human) (UniProt P24941)
Test: Enzyme Assay

## Cc1cc(Nc2nc(-c3ccc4[nH][nH]c(=O)c4c3C(F)(F)F)nc3c2CCNCC3)n[nH]1
  Ki: < 1 µM

## O=C(CCNc1ccccn1)Nc1ccc2c(=O)[nH][nH]c2c1
  Ki: < 1 µM

## O=c1[nH][nH]c2cc(OC3CCC(Nc4ccccn4)C3)ccc12 (stereo unspecified)
  Ki: < 1 µM

## O=c1[nH][nH]c2cc(NC3CCC(Nc4ccccn4)C3)ccc12 (stereo unspecified)
  Ki: < 1 µM

## O=c1[nH][nH]c2cc(OCCONc3cc(C4CC4)[nH]n3)ccc12
  Ki: < 1 µM

## O=C1CCCN(c2cc(-c3cc4c(=O)[nH][nH]c4cc3Cl)nc(Nc3n[nH]c4ccc(F)cc34)n2)C1
  Ki: < 1 µM

## O=c1[nH][nH]c2cc(C(F)(F)F)c(-c3nc(Nc4n[nH]c5c(F)cc(F)cc45)c4nccnc4n3)cc12
  Ki: < 1 µM

## O=c1[nH][nH]c2cc(C(F)(F)F)c(-c3cc4cccnc4c(Nc4n[nH]c5ccccc45)n3)cc12
  Ki: < 1 µM

## O=c1[nH][nH]c2cc(OC3CCC(Nc4nccnn4)C3)ccc12 (stereo unspecified)
  Ki: < 1 µM

## Nc1ncc2c(Nc3n[nH]c4ccccc34)nc(-c3ccc4[nH][nH]c(=O)c4c3C(F)(F)F)nc2n1
  Ki: < 1 µM

## O=c1[nH][nH]c2cc(Nc3nc(Nc4cc(-c5ccccc5)[nH]n4)cc(-c4cccc([N+](=O)[O-])c4)n3)ccc12
  Ki: < 1 µM

## Cc1cnc(NCCC(Cc2ccccc2)Sc2ccc3c(=O)[nH][nH]c3c2)s1 (stereo unspecified)
  Ki: < 1 µM

## Cn1cnc(NC(CCOc2ccc3c(=O)[nH][nH]c3c2)c2ccccc2)c1 (stereo unspecified)
  Ki: < 1 µM

## O=c1[nH][nH]c2cc(Sc3nc(Nc4n[nH]c5ccccc45)c4ccccc4n3)ccc12
  Ki: < 1 µM

## O=c1[nH][nH]c2cc(Nc3nc(Nc4cc(C5CC5)[nH]n4)c4ccc(Cl)cc4n3)ccc12
  Ki: < 1 µM

## Cc1cc(Nc2cc(C)[nH]n2)nc(C(C)(C)c2ccc3c(=O)[nH][nH]c3c2)n1
  Ki: < 1 µM

## O=C(CCNc1ccc2c(=O)[nH][nH]c2c1)Nc1cc(C2CC2)[nH]n1
  Ki: < 1 µM

## O=c1[nH][nH]c2cc(Cl)c(-c3nc(Nc4n[nH]c5ccccc45)nc(-c4cccnc4)n3)cc12
  Ki: < 1 µM

## Cn1cnc(NC2CCC(Nc3ccc4c(=O)[nH][nH]c4c3)C2)c1 (stereo unspecified)
  Ki: < 1 µM

## Cn1cnc(NCCCNc2ccc3c(=O)[nH][nH]c3c2)c1
  Ki: < 1 µM

## Cc1cnc(NC2COCC(Nc3ccc4c(=O)[nH][nH]c4c3)C2)s1 (stereo unspecified)
  Ki: < 1 µM

## O=c1[nH][nH]c2cc(SCCONc3cc(C4CC4)[nH]n3)ccc12
  Ki: < 1 µM

## CCc1cccc2c(Nc3cc(C)[nH]n3)nc(-c3ccc4[nH][nH]c(=O)c4c3OC(F)(F)F)nc12
  Ki: < 1 µM

## O=c1[nH][nH]c2cc(C(F)(F)F)c(-c3cc(Nc4n[nH]c(C5CC5)n4)c4ccccc4n3)cc12
  Ki: < 1 µM

## Cc1cc(Nc2nc(COc3ccc4c(=O)[nH][nH]c4c3)nc3c2CNCC3)n[nH]1
  Ki: < 1 µM

## O=c1[nH][nH]c2cc(NC3CCCC(Nc4cc(C5CC5)[nH]n4)C3)ccc12 (stereo unspecified)
  Ki: < 1 µM

## O=c1[nH][nH]c2ccc(OCc3nc(Nc4cc(C5CC5)[nH]n4)c4ccccc4n3)cc12
  Ki: < 1 µM

## O=c1[nH][nH]c2ccc(C3CCC(Nc4nccnn4)C3)cc12 (stereo unspecified)
  Ki: < 1 µM

## O=c1[nH][nH]c2cc(SC3CCCC(Nc4nccnn4)C3)ccc12 (stereo unspecified)
  Ki: < 1 µM

## Cn1cnc(NCCC(=O)Nc2ccc3c(=O)[nH][nH]c3c2)c1
  Ki: < 1 µM

## Cc1cc(Nc2nc(Sc3ccc4c(=O)[nH][nH]c4c3)nc3cc(OCCCN4CCOCC4)ccc23)n[nH]1
  Ki: < 1 µM

## CCCCc1cc(Nc2nncc(-c3ccc4[nH][nH]c(=O)c4c3)n2)n[nH]1
  Ki: < 1 µM

## Cc1cc(Nc2cc(-c3ccccc3)nc(Oc3ccc4c(=O)[nH][nH]c4c3)n2)n[nH]1
  Ki: < 1 µM

## Cn1cnc(NC(=O)CC(=O)Nc2ccc3c(=O)[nH][nH]c3c2)c1
  Ki: < 1 µM

## Cc1cc(Nc2nc(Cc3ccc4c(=O)[nH][nH]c4c3)nc3c2CCN(Cc2ccccc2)C3)n[nH]1
  Ki: < 1 µM

## COCc1cc(Nc2nc(Nc3ccc4c(=O)[nH][nH]c4c3)nc3ccccc23)n[nH]1
  Ki: < 1 µM
